Source: PMC9734143, “An efficient human stem cells derived cardiotoxicity testing platform for testing oncotherapeutic analogues of quercetin and cinnamic acid” (Scientific Reports, 2022)

How the values were obtained:
[1] = system: cardiomyocytes (WJCM and H9C2 cells); assay: Cardiotoxicity across parameters as summarised in the discussion (WJCM and H9C2 cells); format: cell-based, human and rat; conditions: for overall cardiotoxicity across the parameters analyzed: analogues at Vero IC50 concentration, 24 h; for active mitochondria status in treated cardiomyocytes / cytotoxic effect against cardiomyocytes by MTT, CCK-8 and LDH assay / intracellular calcium level in treated cardiomyocytes: discussion summary, cell model not specified
From the text: We investigated the effects of 3-hydroxyflavone (QMJ-2, QMJ-5, and QMJ-6) and cinnamyl sulfonamide-hydroxamate (NMJ-1, NMJ-2, NMJ-3) in WJCM and H9C2 cells using the concentrations reported for non-cancerous Vero cells. The prerequisite for any synthesized drug molecules is that they should be nontoxic to cardiac cells.

[2] = system: Vero, a non-cancerous cell line; parameters: method as in PMID 25824412, PMID 30687400; conditions: read-out: IC50 in Vero cells; cited from earlier work
H9C2 cells [3] = assay: Fura-2AM intracellular calcium assay in H9C2 cells; format: cell-based, rat; conditions: 24 h; analogues at Vero IC50 concentration
Experimental: (§1) Intracellular calcium flux was measured using the fluorescent radiometric Ca^2+ indicator, Fura-2 acetoxymethyl ester (Fura-2, AM; Invitrogen, Carlsbad, USA). Briefly, after 24 h of treatment, Fura-2AM (1 μmol/L) was added to cells and incubated for 30 min at 37 °C. The intracellular calcium flux was measured at excitation of 340 nm and 380 nm and emission of 510 nm using a multimode plate reader.

[4] = system: WJMSC-derived cardiomyocytes (WJCM); assay: LDH release assay in WJCM; format: cell-based, human; conditions: 24 h; analogues at Vero IC50 concentration
Experimental: (§2) The experiment was performed as per the manufacturer’s protocol. Absorbance was taken at 490 nm and 680 nm (background signal) using multimode plate reader. LDH activity was calculated by subtracting absorbance taken at 680 nm from 490 nm.

H9C2 cells [5] = assay: LDH release assay in H9C2 cells; format: cell-based, rat; conditions: 24 h; analogues at Vero IC50 concentration
Experimental: as §2

[6] = system: WJMSC-derived cardiomyocytes (WJCM); assay: MTT and CCK-8 cell viability assays in WJCM; format: cell-based, human; conditions: 24 h; analogues at Vero IC50 concentration; Dox 1 µM
Experimental: (§3) Similarly, the toxicity of these compounds in terms of the viability of cells was estimated by using the MTT assay and cell counting kit-8 (CCK-8) assay. For MTT assay, after 24 h of treatments, MTT (5 mg/ml of PBS; HiMedia, India) was added, and cells were incubated for 2 h at 37 °C. The formazan crystals that were formed after the incubation were dissolved using dimethyl sulfoxide (DMSO). For the CCK-8 assay, 10 μL of CCK-8 solution (Boster Biological Technology, Pleasanton, CA, USA) was added to each well and incubated for 2 h at 37 °C. The absorbance for MTT and CCK-8 assay was measured at 570 nm and 450 nm respectively using the EnSight™ Multimode plate reader (Perkin Elmer, MA, USA)[49],[50].

H9C2 cells [7] = assay: TMRE mitochondrial membrane potential assay in H9C2 cells; format: cell-based, rat; conditions: 24 h; analogues at Vero IC50 concentration
Experimental: (§4) Mitochondrial membrane potential of the cells after drug treatment was detected using tetramethylrhodamine ethyl ester dye (TMRE; Molecular Probes, CA, USA). The cells were incubated with 0.3 µM TMRE dye and incubated at 37 °C for 30 min in dark. Fluorescence intensity of TMRE was measured at excitation and emission of 549 nm and 574 nm respectively via a multimode plate reader.

[8] = system: cardiac markers (NKX2.5, GATA4, Troponin I, Troponin T, MHCα) in WJCM; assay: qRT-PCR gene expression of cardiac-specific markers in WJCM; conditions: qRT-PCR; analogues at Vero IC50 concentration
Experimental: Differentiation of WJMSCs was done using a proprietary combination of DNMT and HDAC inhibitors in KO-DMEM/F-12 containing 10% FBS for 48 h. Induction media was replaced with culture media i.e. KO-DMEM/F-12 with 1X GlutaMAX and, 10% FBS after 48 h for 7 days[23].
WJMSC-derived cardiomyocytes (WJCM) and H9C2 were treated with NMJ and QMJ analogues for 24 h. […] To illustrate the toxicity specific to cardiac cells and not a general cytotoxicity, WJMSCs were treated with positive cardiotoxic drugs.
Total ribonucleic acid (RNA) was isolated using RNAiso Plus (TaKaRa, Shiga, Japan) followed by cDNA conversion using PrimeScript™ 1st strand cDNA synthesis kit (TaKaRa, Shiga, Japan). Quantitative reverse transcriptase-polymerase chain reaction (qRT-PCR) was performed by using TB Green™ Premix Ex Taq™ II (Tli RNase H Plus; TaKaRa, Shiga, Japan) for cardiac markers in a QuantStudio™ 5 real-time PCR Systems (Applied Biosystems, USA). All the primers were purchased from Sigma Aldrich, Bangalore, India (Table 1). The relative gene expression was calculated using 2^-∆∆CT and GAPDH, a housekeeping gene was used as endogenous control[52],[53].

H9C2 cells [9] = assay: Griess assay (NO release) in H9C2 cells; format: cell-based, rat; conditions: 24 h; analogues at Vero IC50 concentration
Experimental: (§5) Nitric oxide (NO) release was estimated using the Griess assay. Briefly, after 24 h of drug treatment, Griess reagent (Sigma Aldrich, MO, USA) was added to cells in equal volume and incubated for 30 min in the dark, and absorbance was taken at 540 nm via multimode plate reader.

[10] = system: WJMSC-derived cardiomyocytes (WJCM); assay: Griess assay (NO release) in WJCM; format: cell-based, human; conditions: 24 h
Experimental: as §5

[11] = system: WJMSC-derived cardiomyocytes (WJCM); assay: Fura-2AM intracellular calcium assay in WJCM; format: cell-based, human; conditions: 24 h; analogues at Vero IC50 concentration
Experimental: as §1

[12] = system: WJMSC-derived cardiomyocytes (WJCM); assay: Intracellular ROS assay in WJCM; format: cell-based, human; conditions: 24 h; analogues at Vero IC50 concentration
Experimental: (§6) Generation of ROS was detected using Fluorometric intracellular ROS kit (Sigma Aldrich, MO, USA) as per manufacturer’s protocol. Fluorescence was measured at excitation and emission of 650 nm and 675 nm respectively via multimode plate reader[50],[51].

[13] = system: WJMSC-derived cardiomyocytes (WJCM); assay: TMRE mitochondrial membrane potential assay in WJCM; format: cell-based, human; conditions: 24 h; analogues at Vero IC50 concentration
Experimental: as §4

H9C2 cells [14] = assay: Intracellular ROS assay in H9C2 cells; format: cell-based, rat; conditions: 24 h; analogues at Vero IC50 concentration
Experimental: as §6

H9C2 cells [15] = assay: MTT cell viability assay in H9C2 cells; format: cell-based, rat; conditions: 24 h, analogues at Vero IC50 concentration
Experimental: as §3

Structure (SMILES)	overall cardiotoxicity across the parameters analyzed [1]	active mitochondria status in treated cardiomyocytes [1]	cytotoxic effect against cardiomyocytes by MTT, CCK-8 and LDH assay [1]	intracellular calcium level in treated cardiomyocytes [1]	IC50 [2]	intracellular Ca2+ accumulation in H9C2 cells (Fura-2AM) (H9C2 cells [3])	LDH release in WJCM [4]	LDH release in H9C2 cells (H9C2 cells [5])	toxicity / cell viability in WJCM (MTT, CCK-8), result in words [6]	mitochondrial membrane potential in H9C2 cells (TMRE) (H9C2 cells [7])	GATA4 gene expression in WJCM [8]	MHCα gene expression in WJCM [8]	NKX2.5 gene expression in WJCM [8]	Troponin I gene expression in WJCM [8]	NO level in H9C2 cells (Griess) (H9C2 cells [9])	intracellular Ca2+ accumulation in WJCM (Fura-2AM) [11]	ROS activity in WJCM [12]	mitochondrial membrane potential in WJCM (TMRE) [13]	ROS activity in H9C2 cells (H9C2 cells [14])	Troponin T gene expression in WJCM, increase [8]	other results
O=C(/C=C/c1ccc(S(=O)(=O)NCCc2cccs2)cc1)NO [NMJ-2]	do not display significant cardiotoxicity	remains unaffected	no cytotoxic effect	remained low	8.2 µM	decrease in Ca^2+ accumulation	increase in LDH	increase in LDH	less toxic	increased mitochondrial membrane potential	marked upregulation	marked upregulation	significant increase	marked upregulation	elevated NO levels	decrease in Ca^2+ accumulation	lowered ROS activity				Troponin T gene expression in WJCM, result in words [8]: milder increase; NO level in WJCM (Griess), result in words ([10]; analogues at Vero IC50 concentration): elevated NO levels
O=C(/C=C/c1ccc(S(=O)(=O)NCc2ccco2)cc1)NO [NMJ-3]	do not display significant cardiotoxicity	remains unaffected	no cytotoxic effect	remained low	15.1 µM	decrease in Ca^2+ accumulation	no to little change	no to little change	less toxic	increased mitochondrial membrane potential	marked upregulation	marked upregulation		marked upregulation		decrease in Ca^2+ accumulation	lowered ROS activity	increased mitochondrial membrane potential	lowered ROS activity	8–10 fold	viability of H9C2 cells (MTT), result in words (H9C2 cells [15]): increase in viability; decrease in viability of H9C2 cells (MTT) (H9C2 cells [15]; Dox 1 µM): 10–20%; decrease of NO level in WJCM (Griess) ([10]; NMJ-3 at 15.1 µM): 12%
COc1ccc2c(=O)c(O)c(-c3ccc(C)cc3)oc2c1 [QMJ-6, 3-Hydroxy-7-methoxy-2-(4-methylphenyl)-4H-1-benzopyran-4-one]	do not display significant cardiotoxicity	remains unaffected	no cytotoxic effect	remained low	153 µM	decrease in Ca^2+ accumulation	no to little change	no to little change	less toxic	increased mitochondrial membrane potential	marked upregulation	marked upregulation	significant increase	marked upregulation	elevated NO levels	decrease in Ca^2+ accumulation	lowered ROS activity	increased mitochondrial membrane potential	lowered ROS activity	8–10 fold	viability of H9C2 cells (MTT), result in words (H9C2 cells [15]): increase in viability
